From patent publication US12052991B2, “Substituted pyridinyloxybenzenes and salts thereof and use thereof as herbicidal agents” (Bayer Aktiengesellschaft, priority 2018, dated 2024)

Assays:
Type in all cases: in vivo
[1] = test system: Poa annua (POAAN); assay: Herbicidal early post-emergence action (Table A3); settings: 1900 g/ha; scored visually 9 to 12 days after treatment; 100% = plants have died, 0% = like control plants
Method: (§1) Seeds of monocotyledonous and dicotyledonous weed plants were placed in 96-well microtiter plates in quartz sand and grown in a climatized chamber under controlled growth conditions. 5 to 7 days after sowing, the test plants were treated at the cotyledon stage. The compounds according to the invention, formulated in the form of emulsion concentrates (EC), were applied with a water application rate of the equivalent of 2200 liters per hectare. After the test plants had been left to stand in the climatized chamber for 9 to 12 days under optimum growth conditions, the effect of the preparations was scored visually in comparison to untreated controls. For example, 100% activity=the plants have died, 0% activity=like control plants. Tables A1 to A8 below show the effects of selected compounds of the general formula (I) according to Table 1 on various harmful plants and an application rate corresponding to 1900 g/ha, which were obtained by the experimental procedure mentioned above.

[2] = test system: harmful plants AGSTE, DIPTE, LOLPE, MATCH, POAAN, SETVI, STEME and VERPE; assay: Herbicidal early post-emergence action, summary of Tables A1-A8; settings: application rate of 1900 g of active ingredient per hectare; summary in words
Method: as §1, with “plants.” for “plants. Tables A1 to A8 below show the effects of selected compounds of the general formula (I) according to Table 1 on various harmful plants and an application rate corresponding to 1900 g/ha, which were obtained by the experimental procedure mentioned above.”
Tables A1 to A8 below show the effects of selected compounds of the general formula (I) according to Table 1 on various harmful plants and an application rate corresponding to 1900 g/ha, which were obtained by the experimental procedure mentioned above.
As the results of Tables A1-A8 show, compounds no.

[3] = test system: Setaria viridis (SETVI); assay: Herbicidal pre-emergence action, test C (Table C4); settings: dosage 1280 g/ha; visual scoring after about 3 weeks; 100% = plants have died, 0% = like control plants
Summary of the method: (§2)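 Greenhouse pre-emergence test: compound formulations (WP or EC) are applied at 1280 or 320 g/ha to the soil surface over sown weed seeds, with 0.5% additive in 600 L/ha water. After about 3 weeks, percent activity is assessed visually, 100% indicating dead plants.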

[4] = test system: Stellaria media (STEME); assay: Herbicidal post-emergence action (Table B8); settings: visual rating about 3 weeks after treatment, 100% = plants have died, 0% = like control plants
Summary of the method: (§3)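 Post-emergence spray, one-leaf stage (2–3 wk after sowing), sandy loam, greenhouse. WP/EC in water + 0.5% additive, 600 L/ha, 1280 or 320 g/ha. Visual % activity vs untreated after ~3 wk (0% = like control, 100% = plants dead).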

[5] = test system: Veronica persica (VERPE); assay: Herbicidal post-emergence action (Table B12); settings: visual rating about 3 weeks after treatment, 100% = plants have died, 0% = like control plants
Summary of the method: as §3

[6] = test system: Veronica persica (VERPE); assay: Herbicidal pre-emergence action, test C (Table C12); settings: visual scoring vs untreated controls
Summary of the method: as §2

[7] = test system: Abutilon theophrasti (ABUTH); assay: Herbicidal post-emergence action (Table B5); settings: rated visually after about 3 weeks, 100% = plants have died, 0% = like control plants
Summary of the method: as §3

[8] = test system: Bassia scoparia (KCHSC); assay: Herbicidal post-emergence action (Table B11); settings: dosage 1280 g/ha; visual rating about 3 weeks after treatment; 100% = plants have died, 0% = like control plants
Summary of the method: as §3

[9] = test system: Echinochloa crus-galli (ECHCG); assay: Herbicidal pre-emergence action, test C (Table C1); settings: dosage 1280 g/ha; visual scoring after about 3 weeks; 100% = plants have died, 0% = like control plants
Summary of the method: as §2

[10] = test system: Matricaria inodora (MATIN); assay: Herbicidal post-emergence action (Table B7); settings: rated visually after about 3 weeks, 100% = plants have died, 0% = like control plants
Method: Seeds of mono- and dicotyledonous weed plants were placed in plastic pots in sandy loam soil (doubly sown with in each case one species of mono- or dicotyledonous weed plants per pot), covered with soil and cultivated in a greenhouse under controlled growth conditions. 2 to 3 weeks after sowing, the test plants were treated at the one-leaf stage. The compounds of the invention, formulated in the form of wettable powders (WP) or as emulsion concentrates (EC), were applied onto the green parts of the plants as aqueous suspension or emulsion with addition of 0.5% additive at a water application rate of 600 liters per hectare (converted). After the test plants had been kept in the greenhouse under optimum growth conditions for about 3 weeks, the activity of the preparations was rated visually in comparison to untreated controls. For example, 100% activity=the plants have died, 0% activity=like control plants. Tables B1 to B12 below show the effects of selected compounds of the general formula (I) according to Table 1 on various harmful plants and an application rate corresponding to 1280 or 320 g/ha, which were obtained by the experimental procedure mentioned above.

[11] = test system: Stellaria media (STEME); assay: Herbicidal pre-emergence action, test C (Table C8); settings: visual scoring after about 3 weeks, 100% = plants have died, 0% = like control plants
Summary of the method: as §2

[12] = test system: harmful plants ABUTH, AMARE, ECHCG, LOLRI, MATIN, POAAN, SETVI, STEME, ALOMY, DIGSA, KCHSC and VERPE; assay: Herbicidal post-emergence action, summary of Tables B1-B12; settings: application rate of 1280 or 320 g of active ingredient per hectare; summary in words
Summary of the method: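 Activity scored by eye roughly 3 weeks post-treatment against untreated plants, from 0% (no effect) to 100% (plants dead). Application rates were 1280 or 320 g/ha, as aqueous WP/EC spray plus 0.5% additive at 600 L/ha, onto one-leaf-stage weeds grown 2–3 weeks in sandy loam.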

[13] = test system: Abutilon theophrasti (ABUTH); assay: Herbicidal pre-emergence action, test C (Table C5); settings: visual scoring after about 3 weeks, 100% = plants have died, 0% = like control plants
Summary of the method: as §2

[14] = test system: Amaranthus retroflexus (AMARE); assay: Herbicidal pre-emergence action, test C (Table C6); settings: visual scoring after about 3 weeks, 100% = plants have died, 0% = like control plants
Summary of the method: as §2

[15] = test system: Poa annua (POAAN); assay: Herbicidal post-emergence action (Table B3); settings: rated visually after about 3 weeks, 100% = plants have died, 0% = like control plants
Summary of the method: as §3

[16] = test system: Echinochloa crus-galli (ECHCG); assay: Herbicidal post-emergence action (Table B1); settings: 1280 g/ha; rated visually after about 3 weeks; 100% = plants have died, 0% = like control plants
Summary of the method: as §3

[17] = test system: Digitaria sanguinalis (DIGSA); assay: Herbicidal pre-emergence action, test C (Table C10); settings: dosage 1280 g/ha; visual scoring after about 3 weeks; 100% = plants have died, 0% = like control plants
Summary of the method: as §2

[18] = test system: Matricaria inodora (MATIN); assay: Herbicidal pre-emergence action, test C (Table C7); settings: visual scoring after about 3 weeks, 100% = plants have died, 0% = like control plants
Summary of the method: as §2

[19] = test system: Alopecurus myosuroides (ALOMY); assay: Herbicidal pre-emergence action, test C (Table C9); settings: visual scoring after about 3 weeks, 100% = plants have died, 0% = like control plants
Summary of the method: as §2

[20] = test system: Bassia scoparia (KCHSC); assay: Herbicidal pre-emergence action, test C (Table C11); settings: dosage 1280 g/ha, visual scoring vs untreated controls
Summary of the method: as §2

[21] = test system: harmful plants ABUTH, AMARE, ECHCG, LOLRI, MATIN, POAAN, SETVI, STEME, ALOMY, DIGSA, KCHSC and VERPE; assay: Herbicidal pre-emergence action (test C), summary of Tables C1-C12; settings: application rate of 1280 or 320 g of active ingredient per hectare; summary in words
Summary of the method: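 Visual % damage versus untreated plants (0% = like control, 100% = died) was scored after about 3 weeks in the greenhouse. Before emergence, seeds sown in sandy loam got a soil-surface spray of compound as WP or EC plus 0.5% additive, using 600 L/ha water at rates of 1280 or 320 g/ha.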

[22] = test system: Poa annua (POAAN); assay: Herbicidal pre-emergence action, test C (Table C3); settings: visual scoring after about 3 weeks, 100% = plants have died, 0% = like control plants
Summary of the method: as §2

[23] = test system: Amaranthus retroflexus (AMARE); assay: Herbicidal post-emergence action (Table B6); settings: dosage 1280 g/ha; visual rating about 3 weeks after treatment; 100% = plants have died, 0% = like control plants
Summary of the method: as §3

[24] = test system: Alopecurus myosuroides (ALOMY); assay: Herbicidal post-emergence action (Table B9); settings: rated visually after about 3 weeks, 100% = plants have died, 0% = like control plants
Summary of the method: as §3

[25] = test system: Agrostis tenuis (AGSTE); assay: Herbicidal early post-emergence action (Table A1); settings: 1900 g/ha; scored visually 9 to 12 days after treatment; 100% = plants have died, 0% = like control plants
Method: as §1

Question: Which results are given for `COc1ccc(-c2cc(C(F)F)no2)c(Oc2ncc(Cl)cc2F)c1` [Example 1-37]?
Answer: Early post-emergence effect against Poa annua (POAAN) [1]: 80%; herbicidal activity against the harmful plants of Tables A1-A8 in early post-emergence treatment [2]: very good herbicidal activity

Question: Which results are given for `Cc1cc(C)c(-c2cc(C(F)F)no2)c(Oc2ccccn2)c1` [Example 1-86]?
Answer: Pre-emergence action against Setaria viridis (SETVI) [3]: 100%; Post-emergence action against Stellaria media (STEME) ([4]; dosage 320 g/ha): 100%; Post-emergence action against Stellaria media (STEME) ([4]; dosage 1280 g/ha): 100%; Post-emergence action against Veronica persica (VERPE) ([5]; dosage 320 g/ha): 100%; Post-emergence action against Veronica persica (VERPE) ([5]; dosage 1280 g/ha): 100%; Pre-emergence action against Veronica persica (VERPE) ([6]; dosage 320 g/ha): 90%; Pre-emergence action against Veronica persica (VERPE) ([6]; dosage 1280 g/ha): 100%; Post-emergence action against Abutilon theophrasti (ABUTH) ([7]; 320 g/ha): 100%; Post-emergence action against Abutilon theophrasti (ABUTH) ([7]; 1280 g/ha): 100%; Post-emergence action against Bassia scoparia (KCHSC) [8]: 90%; Pre-emergence action against Echinochloa crus-galli (ECHCG) [9]: 100%; Post-emergence action against Matricaria inodora (MATIN) ([10]; 320 g/ha): 100%; Post-emergence action against Matricaria inodora (MATIN) ([10]; 1280 g/ha): 100%; Pre-emergence action against Stellaria media (STEME) ([11]; dosage 320 g/ha): 90%; Pre-emergence action against Stellaria media (STEME) ([11]; dosage 1280 g/ha): 100%; herbicidal activity against the harmful plants of Tables B1-B12 in post-emergence treatment [12]: very good herbicidal activity; Pre-emergence action against Abutilon theophrasti (ABUTH) ([13]; dosage 320 g/ha): 90%; Pre-emergence action against Abutilon theophrasti (ABUTH) ([13]; dosage 1280 g/ha): 100%; Pre-emergence action against Amaranthus retroflexus (AMARE) ([14]; dosage 320 g/ha): 100%; Pre-emergence action against Amaranthus retroflexus (AMARE) ([14]; dosage 1280 g/ha): 100%; Post-emergence action against Poa annua (POAAN) ([15]; 320 g/ha): 100%; Post-emergence action against Poa annua (POAAN) ([15]; 1280 g/ha): 100%; Post-emergence action against Echinochloa crus-galli (ECHCG) [16]: 100%; Pre-emergence action against Digitaria sanguinalis (DIGSA) [17]: 100%; Pre-emergence action against Matricaria inodora (MATIN) ([18]; dosage 320 g/ha): 90%; Pre-emergence action against Matricaria inodora (MATIN) ([18]; dosage 1280 g/ha): 100%; Pre-emergence action against Alopecurus myosuroides (ALOMY) ([19]; dosage 320 g/ha): 90%; Pre-emergence action against Alopecurus myosuroides (ALOMY) ([19]; dosage 1280 g/ha): 90%; Pre-emergence action against Bassia scoparia (KCHSC) [20]: 100%; herbicidal activity against the harmful plants of Tables C1-C12 in pre-emergence treatment [21]: very good herbicidal activity; Pre-emergence action against Poa annua (POAAN) ([22]; dosage 320 g/ha): 90%; Pre-emergence action against Poa annua (POAAN) ([22]; dosage 1280 g/ha): 100%; Post-emergence action against Amaranthus retroflexus (AMARE) [23]: 100%; Post-emergence action against Alopecurus myosuroides (ALOMY) ([24]; 320 g/ha): 100%; Post-emergence action against Alopecurus myosuroides (ALOMY) ([24]; 1280 g/ha): 100%

Question: With `Fc1ccc(Oc2cccc(F)c2-c2cc(C(F)F)no2)nc1` [Example 1-41] as the compound, how does the “Early post-emergence effect against Agrostis tenuis (AGSTE)” value [25] read?
Answer: 80%

Question: What about the “Early post-emergence effect against Poa annua (POAAN)” value [1] of the same compound?
Answer: 100%

Question: What about the “herbicidal activity against the harmful plants of Tables A1-A8 in early post-emergence treatment” value [2] of the same compound?
Answer: very good herbicidal activity

Question: Which results are given for `CSc1cccc(Oc2ccc(Cl)cn2)c1-c1cc(C(F)F)no1` [Example 1-56]?
Answer: Early post-emergence effect against Agrostis tenuis (AGSTE) [25]: 100%; Early post-emergence effect against Poa annua (POAAN) [1]: 100%; herbicidal activity against the harmful plants of Tables A1-A8 in early post-emergence treatment [2]: very good herbicidal activity

Question: Which results are given for `Cc1cc(F)c(-c2cc(C(F)F)on2)c(Oc2ncc(Cl)cc2F)c1` [Example 1-87]?
Answer: Early post-emergence effect against Agrostis tenuis (AGSTE) [25]: 80%; Early post-emergence effect against Poa annua (POAAN) [1]: 80%; herbicidal activity against the harmful plants of Tables A1-A8 in early post-emergence treatment [2]: very good herbicidal activity
